Legend:
[1] = molecular target: T1, AChE from human erythrocytes (Homo sapiens, UniProt P22303); assay: AChE inhibition (from human erythrocytes), Ellman method; format: biochemical; settings: 10 min preincubation at 30° C., 400 μM acetylthiocholine iodide, pH 8
T1 construct: 0.02 unit/ml AChE (Sigma Chemical Co. from human erythrocytes); purchased Sigma Chemical Co; host or cells: human erythrocytes
Protocol: AChE Inhibition (from Human Erythrocytes)
The method of Ellman et al. (Ellman, G. L.; Courtney, K. D.; Andres, B.; Featherstone, R. M. Biochem. Pharmacol. 1961, 7, 88-95) was followed. The assay solution consisted of 0.1 M phosphate buffer pH 8, 200 μM 5,5′-dithiobis(2-nitrobenzoic acid) (DTNB, Ellan's reagent), 0.02 unit/ml AChE (Sigma Chemical Co. from human erythrocytes), and 400 μM acetylthiocholine iodide as the substrate of the enzymatic reaction. The compounds tested were added to the assay solution and pre incubated with the enzyme for 10 min at 30° C. After that period, the substrate was added. The absorbance changes at 412 nm were recorded for 5 min with a Perkin-Elmer 550 SE UV/VIS spectrometer, the reaction rates were compared, and the percent inhibition due to the presence of test compounds was calculated.

β-amyloid-AChE complex = molecular target: T2, β-amyloid-AChE complex (Homo sapiens, UniProt P22303); assay: Inhibition of β-amyloid aggregation (AChE-Aβ complex, Congo Red binding); format: biochemical; settings: compound at its AChE IC50, Aβ1-40 0.1 mM, Aβ-AChE 200:1, 48 hours
T2 construct: purchased Sigma-Aldrich
T2 sequence (P22303 32-614, one chain of several): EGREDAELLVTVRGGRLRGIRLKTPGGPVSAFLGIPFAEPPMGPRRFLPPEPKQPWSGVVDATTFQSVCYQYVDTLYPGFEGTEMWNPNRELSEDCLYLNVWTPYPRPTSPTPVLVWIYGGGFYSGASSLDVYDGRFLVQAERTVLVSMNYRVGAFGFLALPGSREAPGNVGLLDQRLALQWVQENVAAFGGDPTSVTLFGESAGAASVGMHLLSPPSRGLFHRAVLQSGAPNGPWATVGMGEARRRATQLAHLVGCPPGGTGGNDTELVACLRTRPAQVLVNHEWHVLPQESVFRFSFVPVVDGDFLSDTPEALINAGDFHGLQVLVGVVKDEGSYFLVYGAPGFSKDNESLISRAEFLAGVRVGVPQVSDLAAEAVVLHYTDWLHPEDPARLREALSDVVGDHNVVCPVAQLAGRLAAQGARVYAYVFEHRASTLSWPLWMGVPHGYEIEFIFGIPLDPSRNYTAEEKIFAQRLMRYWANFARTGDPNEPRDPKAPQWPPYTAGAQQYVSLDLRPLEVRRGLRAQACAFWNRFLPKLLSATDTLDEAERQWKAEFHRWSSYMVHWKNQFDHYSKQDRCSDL
Protocol: Inhibition of β-Amyloid Aggregation:
Stock solutions of Aβ1-40 at 3.5 mM were prepared in DMSO. The amount of peptide used in the assays was 0.1 mM. Human recombinant AChE (Sigma-Aldrich) was used at a molar ratio Aβ-AChE 200:1. For the aggregation studies the peptide was mixed with the appropriate amount of AChE in PBS pH 7.4 and stirred for 48 hours in -a microtiter plate at room temperature. The fibrils obtained were characterized by Congo Red (CR) binding.
For the inhibition of β-amyloid aggregation, the compounds tested were used at the IC50 defined in the previous paragraph of the biological evaluation. Propidium iodide 50 μM for comparison.

AChE from SK—N—SH cells = molecular target: T3, AChE from SK—N—SH cells (Homo sapiens, UniProt P22303); assay: Neuronal AChE activity, enzyme preparation from SK-N-SH cells; format: biochemical
T3 construct: The assay solution consisted of AChE from neuronal cells; endogenous in cells; host or cells: SK-N-SH human neuroblastoma cells
T3 sequence (P22303 32-614): as the sequence (P22303 32-614, one chain of several) above
Protocol: (§1) Acetylcholinesterase (AChE) enzyme preparations were obtained from SH—SY5Y, SK—N—SH and N2A cells.
(§2) CELL CULTURE: The human neuroblastoma cell line SH—SY5Y was cultured in minimum essential medium, Han's F12 medium, supplemented with 10% fetal bovine serum and 1% penicillin/streptomycin, and grown in a 5% CO2 humidified incubator at 37° C. […] The rat neuroblastoma cell line N2A was cultured in DULBECCO'S MOD EAGLE medium, supplemented with 10% fetal bovine serum and 1% penicillin/streptomycin, and grown in a 5% CO2 humidified incubator at 37° C. The cells were plated at 250 10^3 cells for each reaction, at least, 48 hours before the AChE activity measure. Cells were washed and harvested in 0.1 M sodium phosphate buffer pH 8, at 4° C.
(§3) The assay solution consisted of AChE from neuronal cells, 0.1 M phosphate buffer pH 8, 0.3 mM 5,5′-dithiobis (2-nitrobenzoic acid) (DTNB, Ellman-s reagent), and 0.5 mM acetylthiocholine iodide as the substrate of the enzymatic reaction. […] The reaction rate was calculated with, at least, triplicate measurements, and the percent inhibition due to the presence of test compound was calculated relative to the compound-free control.

AChE from SH—SY5Y cells = molecular target: T4, AChE from SH—SY5Y cells (Homo sapiens, UniProt P22303); assay: Neuronal AChE activity, enzyme preparation from SH-SY5Y cells; format: biochemical; settings: pH 8, 0.5 mM acetylthiocholine iodide, read-out: IC50 AChE SH-SY5Y (human neuroblastoma)
T4 construct: The assay solution consisted of AChE from neuronal cells; endogenous in cells; host or cells: SH-SY5Y human neuroblastoma cells
T4 sequence (P22303 32-614): as the sequence (P22303 32-614, one chain of several) above
Protocol: as §1, §2, §3

AChE from N2A cells = molecular target: T5, AChE from N2A cells (Mus musculus, UniProt P21836); assay: Neuronal AChE activity, enzyme preparation from N2A cells; format: biochemical; settings: pH 8, 0.5 mM acetylthiocholine iodide, read-out: IC50 AChE N2A (rat neuroblastoma)
T5 construct: The assay solution consisted of AChE from neuronal cells; endogenous in cells; host or cells: N2A neuroblastoma cells
T5 sequence (P21836 32-614): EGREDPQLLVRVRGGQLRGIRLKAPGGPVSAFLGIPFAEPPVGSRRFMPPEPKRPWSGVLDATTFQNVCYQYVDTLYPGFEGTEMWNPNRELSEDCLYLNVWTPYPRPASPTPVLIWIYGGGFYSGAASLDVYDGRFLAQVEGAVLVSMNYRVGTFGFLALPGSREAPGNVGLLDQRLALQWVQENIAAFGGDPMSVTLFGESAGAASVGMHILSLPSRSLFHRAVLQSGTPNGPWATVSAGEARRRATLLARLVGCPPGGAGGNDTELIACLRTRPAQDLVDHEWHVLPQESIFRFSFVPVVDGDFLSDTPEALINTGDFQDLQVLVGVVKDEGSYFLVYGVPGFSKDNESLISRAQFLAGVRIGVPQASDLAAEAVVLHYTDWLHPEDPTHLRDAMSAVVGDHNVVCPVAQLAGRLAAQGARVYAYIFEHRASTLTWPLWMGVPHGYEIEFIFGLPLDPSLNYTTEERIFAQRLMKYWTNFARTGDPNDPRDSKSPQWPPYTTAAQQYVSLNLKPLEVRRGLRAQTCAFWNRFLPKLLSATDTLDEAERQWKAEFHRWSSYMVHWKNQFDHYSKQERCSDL
Protocol: as §1, §2, §3

[2] = molecular target: T6, AChE from bovine erythrocytes (Bos taurus, UniProt P23795); assay: Acetylcholinesterase (AChE) inhibition (from bovine erythrocytes), Ellman method at 30° C., Digiscan 340T; format: biochemical; settings: bovine erythrocytes AChE, 30° C., 5 min preincubation; read-out: IC50 AchE
T6 construct: 0.02 units AChE (Sigma Chemical Co. from bovine erythrocytes); purchased Sigma Chemical Co; host or cells: bovine erythrocytes
T6 sequence (P23795 31-614 isoform P23795-2 limits assumed): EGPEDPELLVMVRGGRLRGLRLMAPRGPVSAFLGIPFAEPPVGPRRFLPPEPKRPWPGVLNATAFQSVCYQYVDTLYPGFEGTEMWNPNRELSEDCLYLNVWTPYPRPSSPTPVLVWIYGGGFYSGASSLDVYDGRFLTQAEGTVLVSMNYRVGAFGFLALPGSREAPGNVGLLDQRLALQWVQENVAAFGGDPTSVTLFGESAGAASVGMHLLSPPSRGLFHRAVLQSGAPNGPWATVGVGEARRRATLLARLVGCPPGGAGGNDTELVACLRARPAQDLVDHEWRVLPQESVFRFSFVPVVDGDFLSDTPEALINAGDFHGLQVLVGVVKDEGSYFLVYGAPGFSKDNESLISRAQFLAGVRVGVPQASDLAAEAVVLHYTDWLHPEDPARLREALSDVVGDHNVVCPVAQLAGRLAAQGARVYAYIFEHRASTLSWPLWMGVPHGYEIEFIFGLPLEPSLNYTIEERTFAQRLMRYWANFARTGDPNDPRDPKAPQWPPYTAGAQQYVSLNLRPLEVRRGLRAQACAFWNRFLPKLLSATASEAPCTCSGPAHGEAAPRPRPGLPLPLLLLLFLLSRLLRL
Protocol: Acetylcholinesterase (AChE) Inhibition (from Bovine Erythrocytes)
AChE inhibitory activity was evaluated at 30° C. by the colorimetric method reported by Ellman [Ellman, G. L.; Courtney, K. D.; Andres, B.; Featherstone, R. M. Biochem. Pharmacol. 1961, 7, 88-95]. The assay solution consisted of 0.1 M phosphate buffer pH 8, 0.3 mM 5,5′-dithiobis (2-nitrobenzoic acid) (DTNB, Ellman's reagent), 0.02 units AChE (Sigma Chemical Co. from bovine erythrocytes), and 0.5 mM acetylthiocholine iodide as the substrate of the enzymatic reaction. The compounds tested were added to the assay solution and preincubated with the enzyme for 5 min at 30° C. After that period, the substrate was added. The absorbance changes at 405 nm were recorded for 5 min with a microplate reader Digiscan 340T, the reaction rates were compared, and the percent inhibition due to the presence of test compounds was calculated. The reaction rate was calculated with, at least, triplicate measurements, and the percent inhibition due to the presence of test compound was calculated relative to the compound-free control.

BuChE from human serum = molecular target: T7, BuChE from human serum (Homo sapiens, UniProt P06276); assay: Butyrylcholinesterase (BuChE) inhibition (from human serum); format: biochemical; settings: human serum BuChE, 30° C., 10 min preincubation; read-out: IC50 BuChE
T7 construct: The assay solution consisted of 0.01 units BuChE from human serum; from tissue; host or cells: human serum
T7 sequence (P06276 29-602): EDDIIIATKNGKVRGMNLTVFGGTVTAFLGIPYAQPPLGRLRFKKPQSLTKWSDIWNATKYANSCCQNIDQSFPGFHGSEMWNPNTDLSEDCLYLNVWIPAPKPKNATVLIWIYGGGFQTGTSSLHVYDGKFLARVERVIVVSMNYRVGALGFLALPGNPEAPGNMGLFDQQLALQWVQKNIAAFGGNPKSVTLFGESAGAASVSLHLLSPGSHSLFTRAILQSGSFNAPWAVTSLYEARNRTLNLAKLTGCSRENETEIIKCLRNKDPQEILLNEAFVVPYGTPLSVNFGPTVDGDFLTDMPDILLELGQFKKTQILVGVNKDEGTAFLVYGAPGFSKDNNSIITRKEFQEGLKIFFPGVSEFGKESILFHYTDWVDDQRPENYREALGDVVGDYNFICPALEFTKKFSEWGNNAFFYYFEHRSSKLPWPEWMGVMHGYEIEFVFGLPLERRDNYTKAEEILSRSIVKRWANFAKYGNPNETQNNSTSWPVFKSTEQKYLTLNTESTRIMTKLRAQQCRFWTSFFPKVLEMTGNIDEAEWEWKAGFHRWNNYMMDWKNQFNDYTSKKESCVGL
Protocol: Butyrylcholinetersae (BuChE) Inhibition (from Human Serum)
BuChE inhibitory activity was evaluated at 30° C. by the colorimetric method reported by Ellman (Ellman, G. L.; Courtney, K. D.; Andres, B.; Featherstone, R. M. Biochem. Pharmacol. 1961, 7, 88-95]. The assay solution consisted of 0.01 units BuChE from human serum, 0.1 M sodium phosphate buffer pH 8, 0.3 mM 5,5′-dithiobis (2-nitrobenzoic acid) (DTNB, Ellman's reagent), and 0.5 mM butylthiocholine iodide as the substrate of the enzymatic reaction. Enzyme activity was determined by measuring the absorbance at 405 nm during 5 minutes with a microplate reader Digiscan 340T. The tested compounds were preincubated with the enzyme for 10 minutes at 30° C. The reaction rate was calculated with, at least, triplicate measurements.

AChE peripheral site = AChE peripheral site (Homo sapiens, UniProt P22303); assay: Propidium competition (fluorescence); format: binding; settings: 20 μM propidium iodide, AChE incubated at least 6 hours with compound
Chain of AChE peripheral site (P22303 32-614): as the sequence (P22303 32-614, one chain of several) above
Protocol: Fluorescence was measured in a Fluostar optima plate reader (BMG). Measurements were carried out in 100 μl solution volume, in 96-well plates. The buffer used was 1 mM Tris/HCl, pH 8.0. […] AChE was incubated, at least 6 hours, with the molecules at different concentrations. 20 μM propidium iodide was added 10 min before fluorescence measurement.

[3] = system: SH—SY5Y cells exposed to β-amyloid fragment 25-35; assay: Effects on β-amyloid toxicity (fragment 25-35, LDH viability); format: cell-based, human; settings: 1 hour pretreatment, Aβ 25-35 at 200 μM, 24 hours
Protocol: Effects on β-Amiloid Toxicity
We have tested if some of these molecules interfere with amyloid peptide toxicity. Cells SH—SY5Y were cultured in 96-well plates as toxicity experiments. Cells were pretreated for 1 hour with the compounds at different concentrations (from 10^−5 to 10^−9), immediately neuronal death is induced adding synthetic peptide β-amyloid, fragment 25-35 (A25-35) at 200 μM. 24 hours later cell viability was assessed with the LDH assay; results are reported relative to untreated wells.

[4] = system: calcium channels in SH—SY5Y cells; assay: Effects on calcium channels (K+ stimulated calcium entry, Fluo-4); format: cell-based, human; settings: 60 mM K+, 10 min preincubation
Protocol: Effects on Calcium Channels
We have studied if these compounds are able to block calcium channels. Calcium entry in SH—SY5Y cells was stimulated with 60 mM K^+ in 96-well plates. Cells were plated at 5·10^4 for each well, at least, 48 hours before the experiment. For measurement of intracellular calcium, SH—SY5Y were washed with Krebs/HEPES buffer, pH 7.4. and cells were loaded with the calcium indicator dye Fluo-4 (Molecular Probes) for 40 min at 37° C. followed by 15 min post incubation at room temperature. Intracellular calcium was measured fluorometrically in a Fluostar optima plate reader (BMG), with excitation wavelengths set at 485 nm and emission at 520 nm. The tested compounds were preincubated with the cells for 10 minutes before the depolarization with K^+.

[5] = system: human neuroblastoma cell line SH—SY5Y; assay: Toxicity measurement (LDH) in SH-SY5Y cells; format: cell-based; settings: 24 hours exposure
Protocol: The cytotoxicity effect of the molecules was tested in the human neuroblastoma cell line SH—SY5Y. These cells were cultured in 96-well plates in minimum essential medium, Han's F12 medium, supplemented with 10% fetal bovine serum, 1% glutamine and 1% penicillin/streptomycin, and grown in. a 5% CO2 humidified incubator at 37° C.
The cells were plated at 10^4 cells for each well, at least, 48 hours before the toxicity measure. Cells were exposed for 24 hours to the compounds at different concentrations (from 10^−5 to 10^−9), quantitative assessment of cell death was made by measurement of the intracellular enzyme lactate dehydrogenase (LDH) (citotoxicity detection kit, Roche). The cuantity of LDH was evaluated in a microplate reader Anthos 2010, at 492 and 620 nm. Controls were taken as 100% viability.

[6] = molecular target: T6, AChE from bovine erythrocytes; assay: AChE inhibition (from bovine erythrocytes), Ellman method at 25° C., Fluostar reader; format: biochemical; settings: 0.5 mM acetylthiocholine iodide, pH 8, 10 min preincubation
Protocol: AChE Inhibition (from Bovine Erythocytes)
AChE inhibitory activity was evaluated at 25° C. by the colorimetric method reported by Ellman (Ellman, G. L.; Courtney, K. D.; Andres, B.; Featherstone, R. M. Biochem. Pharmacol. 1961, 7, 88-95). The assay solution consisted on 0.02 unit/ml AChE from bovine erythrocytes, 0.1 M sodium phosphate buffer pH 8, 0.3 mM 5,5′-dithiobis (2-nitrobenzoic […]), and 0.5 mM acetylthiocholine iodide as the substrate of the enzymatic reaction. Enzyme activity was determined by measuring the absorbance at 405 nm during 10 minutes with a Fluostar optima plate reader (BMG). The tested compounds were preincubated with the enzyme for 10 minutes at 30° C.

T1 sequence (P22303 32-617 isoform P22303-2 limits assumed): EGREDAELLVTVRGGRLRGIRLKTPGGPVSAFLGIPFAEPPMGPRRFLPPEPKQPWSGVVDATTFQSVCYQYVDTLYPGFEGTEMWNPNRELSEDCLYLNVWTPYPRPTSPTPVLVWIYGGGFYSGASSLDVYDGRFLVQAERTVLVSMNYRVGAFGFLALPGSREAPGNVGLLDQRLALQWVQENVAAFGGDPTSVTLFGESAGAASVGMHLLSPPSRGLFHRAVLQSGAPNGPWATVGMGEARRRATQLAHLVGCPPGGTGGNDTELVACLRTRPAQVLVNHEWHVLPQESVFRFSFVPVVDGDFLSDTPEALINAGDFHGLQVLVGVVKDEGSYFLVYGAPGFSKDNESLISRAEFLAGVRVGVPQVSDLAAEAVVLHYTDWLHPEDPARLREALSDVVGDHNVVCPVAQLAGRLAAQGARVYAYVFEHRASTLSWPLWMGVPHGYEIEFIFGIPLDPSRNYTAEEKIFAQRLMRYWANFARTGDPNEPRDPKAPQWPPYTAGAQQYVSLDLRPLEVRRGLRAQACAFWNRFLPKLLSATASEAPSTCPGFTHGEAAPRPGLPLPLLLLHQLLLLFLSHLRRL

Row | Compound | IC50 [1] | reduction of the β-amyloid-AChE complex aggregation (β-amyloid-AChE complex) | IC50 (AChE from SK—N—SH cells) | IC50 (AChE from SH—SY5Y cells) | IC50 (AChE from N2A cells) | IC50 [2] | IC50 (BuChE from human serum) | Propidium competition (AChE peripheral site) | inhibition of Aβ(25-35) toxicity [3] | Calcium channel blockade [4] | Toxicity [5] | IC50 [6]
1 | COc1cc2c(cc1OC)C(=O)C(CNCCCCCCCNc1c3c(nc4ccccc14)CCCC3)C2 (stereo not shown) [Compound 1, 5,6-Dimethoxy-2-{[7-(1,2,3,4-tetrahydro-acridin-9-ylamino)-heptylamino]-methyl}-indan-1-one] | 25 nM | 18.7% | 109 nM | 4350 nM | 209 nM |  |  |  |  |  |  | 
2 | O=C1c2ccccc2C(=O)N1CCCCCCCNc1c2ccccc2nc2ccccc12 [Compound 7, 2-[7-(Acridin-9-ylamino)-heptyl]-isoindole-1,3-dione] |  |  |  |  |  | 1500 nM | 700 nM | 100 µM | 1 µM | 10 µM | >100 µM | 
3 | CCCn1s/c(=N\CCCCCCCNc2c3c(nc4ccccc24)CCCC3)n(CC)c1=O [Compound 16, 4-Ethyl-2-propyl-5-[7-(1,2,3,4-tetrahydro-acridin-9-ylamino)-heptyl-imino]-[1,2,4]thiadiazolidin-3-one] |  |  |  |  |  | 450 nM | 20 nM | >100 µM |  |  | 50 µM | 203 nM

From US20060142323A1, “Dual binding site acetylcholinesterase inhibitors for the treatment of alzheimer's disease” (priority 2002, published 2006)
